PubChem BioAssay (NCI)
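Values below derive from 48-hour exposures of cells grown in 96-well plates, with endpoints linearly interpolated between the two concentrations bracketing the appropriate inhibition level. Abbreviation: GI50, concentration required for 50% inhibition of growth. At the TGI there is no net growth.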

Assays:
Test in all cases: NCI-60 cell line screen, 48 h; in the data active = GI50 below about 0.43 µM; inactive = the rest
HT29 colon = tested on: HT29 colon
SF-295 CNS = tested on: SF-295 CNS
SW-620 colon = tested on: SW-620 colon
SR leukemia = tested on: SR leukemia
SF-268 CNS = tested on: SF-268 CNS
MDA-MB-435 = tested on: MDA-MB-435
NCI-H460 lung = tested on: NCI-H460 lung
KM12 colon = tested on: KM12 colon
HCC-2998 colon = tested on: HCC-2998 colon
SK-MEL-5 melanoma = tested on: SK-MEL-5 melanoma
SK-OV-3 ovarian = tested on: SK-OV-3 ovarian
HOP-62 NSCLC = tested on: HOP-62 NSCLC
ACHN renal = tested on: ACHN renal
SK-MEL-2 melanoma = tested on: SK-MEL-2 melanoma
UACC-257 melanoma = tested on: UACC-257 melanoma
HOP-92 NSCLC = tested on: HOP-92 NSCLC
HCT-116 colon = tested on: HCT-116 colon
OVCAR-5 ovarian = tested on: OVCAR-5 ovarian
DU-145 prostate = tested on: DU-145 prostate
NCI-H23 lung = tested on: NCI-H23 lung
MDA-MB-231 breast = tested on: MDA-MB-231 breast
SNB-75 CNS = tested on: SNB-75 CNS
K-562 leukemia = tested on: K-562 leukemia
NCI-H226 lung = tested on: NCI-H226 lung
786-0 renal = tested on: 786-0 renal
SN12C renal = tested on: SN12C renal
HCT-15 colon = tested on: HCT-15 colon
TK-10 renal = tested on: TK-10 renal
RPMI-8226 leukemia = tested on: RPMI-8226 leukemia
M14 melanoma = tested on: M14 melanoma
CAKI-1 renal = tested on: CAKI-1 renal
U251 CNS = tested on: U251 CNS
SNB-19 CNS = tested on: SNB-19 CNS
UACC-62 melanoma = tested on: UACC-62 melanoma
PC-3 prostate = tested on: PC-3 prostate
IGROV1 ovarian = tested on: IGROV1 ovarian
BT-549 breast = tested on: BT-549 breast
OVCAR-8 ovarian = tested on: OVCAR-8 ovarian
MCF7 breast = tested on: MCF7 breast
RXF 393 renal = tested on: RXF 393 renal
MALME-3M melanoma = tested on: MALME-3M melanoma
LOX IMVI melanoma = tested on: LOX IMVI melanoma
HS 578T breast = tested on: HS 578T breast
SK-MEL-28 melanoma = tested on: SK-MEL-28 melanoma
UO-31 renal = tested on: UO-31 renal
OVCAR-3 ovarian = tested on: OVCAR-3 ovarian
NCI/ADR-RES ovarian = tested on: NCI/ADR-RES ovarian
SF-539 CNS = tested on: SF-539 CNS
CCRF-CEM leukemia = tested on: CCRF-CEM leukemia
HL-60(TB) leukemia = tested on: HL-60(TB) leukemia
NCI-H522 lung = tested on: NCI-H522 lung
T-47D breast = tested on: T-47D breast
A549 NSCLC = tested on: A549 NSCLC
COLO 205 colon = tested on: COLO 205 colon
A498 renal = tested on: A498 renal

CN(C)C1CN(C(=O)c2cc(-c3ccc4ncnc(N5CCc6cc(F)c(Cl)cc65)c4c3)cnc2N)C1
2.34 µM: TGI (RXF 393 renal)
3.77 µM: TGI (SK-MEL-2 melanoma)
> 100 µM: TGI (HT29 colon) | TGI (SF-295 CNS) | TGI (SW-620 colon) | TGI (SR leukemia) | TGI (SF-268 CNS) | TGI (NCI-H460 lung) | TGI (KM12 colon) | TGI (HCC-2998 colon) | TGI (SK-OV-3 ovarian) | TGI (ACHN renal) | TGI (OVCAR-5 ovarian) | TGI (DU-145 prostate) | TGI (NCI-H23 lung) | TGI (MDA-MB-231 breast) | TGI (K-562 leukemia) | TGI (NCI-H226 lung) | TGI (786-0 renal) | TGI (SN12C renal) | TGI (HCT-15 colon) | TGI (M14 melanoma) | TGI (CAKI-1 renal) | TGI (U251 CNS) | TGI (SNB-19 CNS) | TGI (OVCAR-8 ovarian) | TGI (MCF7 breast) | TGI (LOX IMVI melanoma) | TGI (SK-MEL-28 melanoma) | TGI (UO-31 renal) | TGI (NCI/ADR-RES ovarian) | TGI (CCRF-CEM leukemia) | TGI (NCI-H522 lung) | TGI (A549 NSCLC) | TGI (COLO 205 colon)
5.2 µM: TGI (OVCAR-3 ovarian)
2.92 µM: TGI (SK-MEL-5 melanoma)
2.02 µM: TGI (SNB-75 CNS)
5.52 µM: TGI (T-47D breast)
4.95 µM: TGI (TK-10 renal)
inactive: GI50 (HT29 colon) 0.543 µM | GI50 (SF-295 CNS) 1.18 µM | GI50 (SW-620 colon) 1.48 µM | GI50 (SR leukemia) 1.17 µM | GI50 (SF-268 CNS) 0.652 µM | GI50 (MDA-MB-435) 0.687 µM | GI50 (NCI-H460 lung) 0.574 µM | GI50 (KM12 colon) 1.13 µM | GI50 (HCC-2998 colon) 0.71 µM | GI50 (SK-MEL-5 melanoma) 1.54 µM | GI50 (SK-OV-3 ovarian) 1.17 µM | GI50 (HOP-62 NSCLC) 0.586 µM | GI50 (ACHN renal) 0.443 µM | GI50 (SK-MEL-2 melanoma) 1.09 µM | GI50 (UACC-257 melanoma) 1.54 µM | GI50 (HCT-116 colon) 0.728 µM | GI50 (OVCAR-5 ovarian) 0.743 µM | GI50 (DU-145 prostate) 0.594 µM | GI50 (NCI-H23 lung) 1.25 µM | GI50 (MDA-MB-231 breast) 0.931 µM | GI50 (K-562 leukemia) 0.86 µM | GI50 (NCI-H226 lung) 0.986 µM | GI50 (786-0 renal) 0.436 µM | GI50 (HCT-15 colon) 0.495 µM | GI50 (TK-10 renal) 0.786 µM | GI50 (RPMI-8226 leukemia) 0.489 µM | GI50 (M14 melanoma) 0.886 µM | GI50 (CAKI-1 renal) 0.509 µM | GI50 (U251 CNS) 1.34 µM | GI50 (SNB-19 CNS) 1.65 µM | GI50 (UACC-62 melanoma) 0.43 µM | GI50 (BT-549 breast) 0.436 µM | GI50 (OVCAR-8 ovarian) 0.819 µM | GI50 (MALME-3M melanoma) 0.453 µM | GI50 (LOX IMVI melanoma) 0.458 µM | GI50 (SK-MEL-28 melanoma) 0.869 µM | GI50 (OVCAR-3 ovarian) 0.585 µM | GI50 (NCI/ADR-RES ovarian) 1.71 µM | GI50 (SF-539 CNS) 0.827 µM | GI50 (CCRF-CEM leukemia) 0.583 µM | GI50 (NCI-H522 lung) 1.77 µM | GI50 (A549 NSCLC) 0.486 µM | GI50 (COLO 205 colon) 1.97 µM
1.23 µM: TGI (IGROV1 ovarian)
1.31 µM: TGI (HS 578T breast)
2.17 µM: TGI (HOP-92 NSCLC)
1.49 µM: TGI (HL-60(TB) leukemia)
0.832 µM: TGI (A498 renal)
3.66 µM: TGI (MALME-3M melanoma)
2.16 µM: TGI (UACC-62 melanoma)
> 23 µM: TGI (PC-3 prostate)
active: GI50 (HOP-92 NSCLC) 0.331 µM | GI50 (SNB-75 CNS) 0.195 µM | GI50 (SN12C renal) 0.385 µM | GI50 (PC-3 prostate) 0.398 µM | GI50 (IGROV1 ovarian) 0.223 µM | GI50 (MCF7 breast) 0.303 µM | GI50 (RXF 393 renal) 0.369 µM | GI50 (HS 578T breast) 0.241 µM | GI50 (UO-31 renal) 0.237 µM | GI50 (HL-60(TB) leukemia) 0.151 µM | GI50 (T-47D breast) 0.299 µM | GI50 (A498 renal) 0.254 µM
2.7 µM: TGI (RPMI-8226 leukemia)
4.02 µM: TGI (BT-549 breast)
5.07 µM: TGI (SF-539 CNS)
> 28.1 µM: TGI (HOP-62 NSCLC) | TGI (UACC-257 melanoma)
